In ChEMBL document CHEMBL1129284, “N-methyl-D-aspartic acid receptor agonists: resolution, absolute stereochemistry, and pharmacology of the enantiomers of 2-amino-2-(3-hydroxy-5-methyl-4-isoxazolyl)acetic acid” (J Med Chem, 1996) one finds IC50 and EC50 data, which are given here for six molecules.

A value given as a limit tells only on which side of the number the result lay.

The target in assay [1] is Glutamate receptor ionotropic, kainate. Kind of assay: Inhibitory activity against Ionotropic glutamate receptor kainate using [3H]-kainic acid as radioligand. The class given is protein-complex assay.
The species entered for a further assay is Rattus norvegicus. Kind of assay: Effective dose against rat cortical slice cells using Electrophysiological experiment. It is filed as functional. Conditions: read-out: ED50 (the source's name).
The target in assay [2] is Glutamate receptor ionotropic, AMPA (Rattus norvegicus, UniProt P19490+P19491+P19492+P19493). Kind of assay: Inhibitory activity against Ionotropic glutamate receptor AMPA using [3H]AMPA as radioligand. It is filed as protein-complex assay.
The next assay addresses Glutamate NMDA receptor. Kind of assay: Inhibitory activity against N-methyl-D-aspartate glutamate receptor using [3H]CPP as radioligand. It is filed as protein-complex assay.

Consider `Cc1o[nH]c(=O)c1C(N)C(=O)O` (stereo not given), for which the IC50 in assay [1] and in assay [2] was greater than 100 µM in each case. The EC50 in the assay filed under Rattus norvegicus amounted to 12 µM.
With `NC(C(=O)O)c1cc(=O)[nH]o1` (stereo not given), the IC50 in assay [1] is greater than 100 µM; at Glutamate NMDA receptor it was greater than 100 µM; in assay [2], 76 µM. Also, the EC50 in the assay filed under Rattus norvegicus is 3.8 µM.
As to `Cc1onc(O)c1[C@H](N)C(=O)O`, the IC50 in assay [1] was greater than 100 µM; on Glutamate NMDA receptor, 61 µM; in assay [2], greater than 100 µM. For the same molecule, in the assay listed under Rattus norvegicus, the EC50 came to 75 µM.
For the molecule `Cc1onc(O)c1[C@@H](N)C(=O)O`, the IC50 in assay [1] was greater than 100 µM; on Glutamate NMDA receptor, 3.7 µM; in assay [2] it was 72 µM. Moreover, the EC50 in the assay filed under Rattus norvegicus was 7.3 µM.
As to `Cc1onc(O)c1C[C@H](N)C(=O)O` [(S)-AMPA], the EC50 in the assay listed under Rattus norvegicus was 580 µM.
`CN[C@H](CC(=O)O)C(=O)O` [N-METHYL-D-ASPARTIC ACID (NMDA)]: the values for the IC50 (in assay [1]; on Glutamate NMDA receptor; in assay [2]) were greater than 100 µM, 35 µM and greater than 100 µM, respectively. In addition, the EC50 in the assay listed under Rattus norvegicus came out at 15 µM.
